Blank lines part the entries; values can stand above or below the molecule they belong to.
Key:
CDK8/CycC = target: T1, CDK8/CycC (Homo sapiens, UniProt P49336); test: CDK8 inhibitory activity (Kinase Tracer-236 / Eu-anti-GST fluorescence assay); format: binding; parameters: Percent inhibition of CDK8 activity (%): concentration or dose not given beside the values; conditions: test compound concentration given as '1 1.1.1\4' [sic]
T1 construct: purchased Carna Biosciences
Procedure: (§1) The compound of the present invention was evaluated for its CDK8 inhibitory activity and CDK19 inhibitory activity by the following method. […] The primary diluted solution was dispensed in the amount of 2 μL/well to a 384-well plate, and then, a mixed solution of Eu^3+ Cryptate conjugated mouse monoclonal antibody anti-glutathione S-transferase (Cisbio) diluted 267-fold with an assay buffer and 60 nM Kinase Tracer-236 (Life technologies) was added thereto at 2 μL/well. […] After the addition, the plate was left standing at room temperature for 1 hour, and then, the fluorescence intensity (excitation wavelength 320 nm, fluorescence wavelength 615 nm, 665 nm, delay time 50 μsec) was measured using ann EnVision plate reader (PerkinElmer). The percent inhibition of CDK8 or CDK19 activity by the test compound can be calculated according to the following formula, wherein the fluorescence intensity of a reaction solution in the absence of compound is defined as the control, and the fluorescence intensity of a reaction solution in the presence of 10 μM of control compound is defined as the blank.

CDC2L6/CycC (CDK19) = target: T2, CDC2L6/CycC (CDK19) (Homo sapiens, UniProt Q9BWU1); test: CDK19 inhibitory activity (Kinase Tracer-236 / Eu-anti-GST fluorescence assay); format: binding; parameters: Percent inhibition of CDK19 activity (%): concentration or dose not given beside the values; conditions: test compound concentration given as '1 1.1.1\4' [sic]
T2 construct: purchased Carna Biosciences Inc
Procedure: as §1

[1] = test system: human multiple myeloma RPMI8226 cells; test: Inhibitory activity against human multiple myeloma RPMI8226 cell growth (CellTiter-Glo); format: cell-based; conditions: Homo sapiens, RPMI-8226, 192 h, 1 μM test compound, cultured for 8 days; read-out: Percent inhibition of RPMI8226 cell growth (%)
Procedure: The compound of the present invention was evaluated for its inhibitory activity against human multiple myeloma RPMI8226 cell growth by the following method.
A suspension of human multiple myeloma RPMI8226 cells (purchased from the Health Protection Agency) was inoculated at 40 μL (300 cells/well) to a 384-well plate and cultured at 37° C. for 1 day in a 5% CO2 incubator. After the culture, each test compound solution was added thereto at a test concentration of 1 μM using TECAN D300, and the cells were further cultured for 8 days. After the culture, CellTiter-Glo™ Luminescent Cell Viability Assay reagent (Promega) was added at 40 μL/well to a 384-well plate, and the amount of luminescence was measured using a luminometer. Inhibitory activity against human multiple myeloma RPMI8226 cell growth (percent inhibition (%)) of the test compound was calculated according to the following formula, which is based on the hypothesis that the amount of residual ATP reflects the number of cells. In this formula, 100% control represents the amount of luminescence from a well with only 0.1% DMSO added. Percent inhibition (%)=(1−(amount of luminescence of the test compound)÷(100% control))×100

T1 sequence (P49336 whole entry): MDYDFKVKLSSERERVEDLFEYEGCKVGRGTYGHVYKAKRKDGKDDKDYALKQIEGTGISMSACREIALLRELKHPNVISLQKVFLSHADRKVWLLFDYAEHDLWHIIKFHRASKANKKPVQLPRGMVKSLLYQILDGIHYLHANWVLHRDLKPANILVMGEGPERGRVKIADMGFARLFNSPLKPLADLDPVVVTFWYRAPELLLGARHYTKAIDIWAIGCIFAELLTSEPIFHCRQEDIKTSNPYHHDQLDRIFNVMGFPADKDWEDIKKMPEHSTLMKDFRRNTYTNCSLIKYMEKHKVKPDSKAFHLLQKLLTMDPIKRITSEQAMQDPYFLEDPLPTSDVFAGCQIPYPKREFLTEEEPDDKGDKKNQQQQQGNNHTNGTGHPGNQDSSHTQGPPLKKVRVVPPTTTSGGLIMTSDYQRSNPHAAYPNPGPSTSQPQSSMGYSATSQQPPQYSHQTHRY
T1 sequence (P24863 whole entry partner): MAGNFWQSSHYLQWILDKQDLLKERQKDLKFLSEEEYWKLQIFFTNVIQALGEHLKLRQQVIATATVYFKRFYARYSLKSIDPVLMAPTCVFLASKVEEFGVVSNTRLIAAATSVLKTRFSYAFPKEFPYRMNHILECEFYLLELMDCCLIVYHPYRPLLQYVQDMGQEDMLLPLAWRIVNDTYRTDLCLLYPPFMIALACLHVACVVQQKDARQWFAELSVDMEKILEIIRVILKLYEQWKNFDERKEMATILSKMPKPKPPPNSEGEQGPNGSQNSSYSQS
T2 sequence (Q9BWU1 whole entry): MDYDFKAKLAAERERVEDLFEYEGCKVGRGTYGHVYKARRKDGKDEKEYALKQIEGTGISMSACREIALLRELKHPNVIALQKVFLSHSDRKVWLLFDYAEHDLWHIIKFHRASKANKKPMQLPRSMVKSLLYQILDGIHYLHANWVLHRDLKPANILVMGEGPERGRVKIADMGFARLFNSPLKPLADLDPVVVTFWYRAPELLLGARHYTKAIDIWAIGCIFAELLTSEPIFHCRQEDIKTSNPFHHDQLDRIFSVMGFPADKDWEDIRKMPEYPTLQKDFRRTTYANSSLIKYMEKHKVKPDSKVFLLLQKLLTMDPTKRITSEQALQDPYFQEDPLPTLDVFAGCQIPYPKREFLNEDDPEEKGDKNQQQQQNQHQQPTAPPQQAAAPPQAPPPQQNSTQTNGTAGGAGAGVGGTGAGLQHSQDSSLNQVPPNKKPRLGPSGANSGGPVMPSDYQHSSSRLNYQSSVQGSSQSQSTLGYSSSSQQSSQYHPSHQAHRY
T2 sequence (P24863 whole entry partner): as the sequence (P24863 whole entry partner) above

Structure (SMILES): Cn1cc(Oc2sc(C(N)=O)c3c2-c2sncc2CC3)cn1 [Example 96, 8-((1-Methyl-1H-pyrazol-4-yl)oxy)-4,5-dihydrothieno[3,4-g][1,2] benzothiazole-6-carboxamide]
- Percent inhibition of CDK8 activity (%) (CDK8/CycC): 110%
- Percent inhibition of CDK19 activity (%) (CDC2L6/CycC (CDK19)): 100%
- inhibition at 1 µM [1]: 69%

Structure (SMILES): NC(=O)c1sc(Oc2ccc(C(=O)N3CCCC3)nc2)c2c1CCc1cnsc1-2 [Example 102, 8-((6-(Pyrrolidin-1-ylcarbonyl)pyridin-3-yl)oxy)-4,5-dihydrothieno[3,4-g][1,2] benzothiazole-6-carboxamide]
- Percent inhibition of CDK8 activity (%) (CDK8/CycC): 103%
- Percent inhibition of CDK19 activity (%) (CDC2L6/CycC (CDK19)): 100%
- inhibition at 1 µM [1]: 58%

Structure (SMILES): N#Cc1cncc(Oc2sc(C(N)=O)c3c2-c2sncc2CC3)c1 [Example 103, 8-((5-Cyanopyridin-3-yl)oxy)-4,5-dihydrothieno[3,4-g][1,2]benzothiazole-6-carboxamide]
- Percent inhibition of CDK8 activity (%) (CDK8/CycC): 103%
- Percent inhibition of CDK19 activity (%) (CDC2L6/CycC (CDK19)): 95%
- inhibition at 1 µM [1]: 52%

Structure (SMILES): NC(=O)c1sc(Oc2ccc(C(=O)N3CCCCC3)nc2)c2c1CCc1cnsc1-2 [Example 106, 8-((6-(Piperidin-1-ylcarbonyl)pyridin-3-yl)oxy)-4,5-dihydrothieno[3,4-g][1,2] benzothiazole-6-carboxamide]
- Percent inhibition of CDK8 activity (%) (CDK8/CycC): 97%
- Percent inhibition of CDK19 activity (%) (CDC2L6/CycC (CDK19)): 95%
- inhibition at 1 µM [1]: 58%

Structure (SMILES): CN(C(=O)C1CC1)c1ccc(Oc2sc(C(N)=O)c3c2-c2sncc2CC3)cn1 [Example 108, 8-((6-((Cyclopropylcarbonyl)(methyl)amimo)pyridin-3-yl)oxy)-4,5-dihydrothieno[3,4-g][1,2]benzothiazole-6-carboxamide]
- Percent inhibition of CDK8 activity (%) (CDK8/CycC): 101%
- Percent inhibition of CDK19 activity (%) (CDC2L6/CycC (CDK19)): 99%
- inhibition at 1 µM [1]: 63%

Structure (SMILES): NC(=O)c1sc(Oc2ccc(C(=O)N3CC[C@@H](O)C3)nc2)c2c1CCc1cnsc1-2 [Example 109, 8-((6-(((3R)-3-Hydroxypyrrolidin-1-yl)carbonyl)pyridin-3-yl)oxy)-4,5-dihydrothieno[3,4-g][1,2]benzothiazole-6-carboxamide]
- Percent inhibition of CDK8 activity (%) (CDK8/CycC): 105%
- Percent inhibition of CDK19 activity (%) (CDC2L6/CycC (CDK19)): 98%
- inhibition at 1 µM [1]: 63%

Structure (SMILES): NC(=O)c1sc(Oc2ccc(C(=O)N3CC[C@H](O)C3)nc2)c2c1CCc1cnsc1-2 [Example 110, 8-((6-(((3S)-3-Hydroxypyrrolidin-1-yl)carbonyl)pyridin-3-yl)oxy)-4,5-dihydrothieno[3,4-g][1,2]benzothiazole-6-carboxamide]
- Percent inhibition of CDK8 activity (%) (CDK8/CycC): 103%
- Percent inhibition of CDK19 activity (%) (CDC2L6/CycC (CDK19)): 98%
- inhibition at 1 µM [1]: 63%

Structure (SMILES): CCOCCNC(=O)c1ccc(Oc2sc(C(N)=O)c3c2-c2sncc2CC3)cn1 [Example 117, 8-((6-((2-Ethoxyethyl)carbamoyl)pyridin-3-yl)oxy)-4,5-dihydrothieno [3,4-g][1,2]benzothiazole-6-carboxamide]
- Percent inhibition of CDK8 activity (%) (CDK8/CycC): 110%
- Percent inhibition of CDK19 activity (%) (CDC2L6/CycC (CDK19)): 99%
- inhibition at 1 µM [1]: 64%

Structure (SMILES): NC(=O)c1sc(Oc2ccc(C(=O)NC3CC3)nc2)c2c1CCc1cnsc1-2 [Example 118, 8-((6-(Cyclopropylcarbamoyl)pyridin-3-yl)oxy)-4,5-dihydrothieno[3,4-g][1,2] benzothiazole-6-carboxamide]
- Percent inhibition of CDK8 activity (%) (CDK8/CycC): 104%
- Percent inhibition of CDK19 activity (%) (CDC2L6/CycC (CDK19)): 100%
- inhibition at 1 µM [1]: 64%

Second part, led by results:

- Percent inhibition of CDK8 activity (%) (CDK8/CycC): 97%
- Percent inhibition of CDK19 activity (%) (CDC2L6/CycC (CDK19)): 89%
Structure (SMILES): CCOCCOc1sc(C(N)=O)c2c1-c1sncc1CC2 [Example 95, 8-(2-Ethoxyethoxy)-4,5-dihydrothieno [3,4-g][1,2]benzothiazole-6-carboxamide]
- inhibition at 1 µM [1]: 69%

- Percent inhibition of CDK8 activity (%) (CDK8/CycC): 103%
- Percent inhibition of CDK19 activity (%) (CDC2L6/CycC (CDK19)): 99%
Structure (SMILES): COCC(=O)Nc1ccc(Oc2sc(C(N)=O)c3c2-c2sncc2CC3)cn1 [Example 97, 8-((6-((Methoxyacetyl)amino)pyridin-3-yl)oxy)-4,5-dihydrothieno[3,4-g][1,2] benzothiazole-6-carboxamide]
- inhibition at 1 µM [1]: 55%

- Percent inhibition of CDK8 activity (%) (CDK8/CycC): 106%
- Percent inhibition of CDK19 activity (%) (CDC2L6/CycC (CDK19)): 95%
Structure (SMILES): COCCN(C)C(=O)c1ccc(Oc2sc(C(N)=O)c3c2-c2sncc2CC3)cn1 [Example 101, 8-((6-((2-Methoxyethyl)(methyl)carbamoyl)pyridin-3-yl)oxy)-4,5-dihydrothieno[3,4-g][1,2]benzothiazole-6-carboxamide]
- inhibition at 1 µM [1]: 65%

- Percent inhibition of CDK8 activity (%) (CDK8/CycC): 101%
- Percent inhibition of CDK19 activity (%) (CDC2L6/CycC (CDK19)): 102%
Structure (SMILES): NC(=O)c1sc(Oc2ccc(C(=O)N3CCC3)nc2)c2c1CCc1cnsc1-2 [Example 104]
- inhibition at 1 µM [1]: 66%

- Percent inhibition of CDK8 activity (%) (CDK8/CycC): 99%
- Percent inhibition of CDK19 activity (%) (CDC2L6/CycC (CDK19)): 96%
Structure (SMILES): CN(CCO)C(=O)c1ccc(Oc2sc(C(N)=O)c3c2-c2sncc2CC3)cn1 [Example 105]
- inhibition at 1 µM [1]: 54%

- Percent inhibition of CDK8 activity (%) (CDK8/CycC): 107%
- Percent inhibition of CDK19 activity (%) (CDC2L6/CycC (CDK19)): 100%
Structure (SMILES): COC1CN(C(=O)c2ccc(Oc3sc(C(N)=O)c4c3-c3sncc3CC4)cn2)C1 [Example 111, 8-((6-((3-Methoxyazetidin-1-yl)carbonyl)pyridin-3-yl)oxy)-4,5-dihydrothieno[3,4-g][1,2]benzothiazole-6-carboxamide]
- inhibition at 1 µM [1]: 58%

- Percent inhibition of CDK8 activity (%) (CDK8/CycC): 106%
- Percent inhibition of CDK19 activity (%) (CDC2L6/CycC (CDK19)): 102%
Structure (SMILES): CNC(=O)c1ccc(Oc2sc(C(N)=O)c3c2-c2sncc2CC3)c(C)n1 [Example 112, 8-((2-Methyl-6-(methylcarbamoyl)pyridin-3-yl)oxy)-4,5-dihydrothieno [3,4-g][1,2]benzothiazole-6-carboxamide]
- inhibition at 1 µM [1]: 69%

- Percent inhibition of CDK8 activity (%) (CDK8/CycC): 108%
- Percent inhibition of CDK19 activity (%) (CDC2L6/CycC (CDK19)): 101%
Structure (SMILES): COC1CN(C(=O)c2ccc(Oc3sc(C(N)=O)c4c3-c3sncc3CC4)c(C)n2)C1 [Example 113, 8-((6-((3-Methoxyazetidin-1-yl)carbonyl)-2-methylpyridin-3-yl)oxy)-4,5-dihydrothieno[3,4-g][1,2] benzothiazole-6-carboxamide]
- inhibition at 1 µM [1]: 68%

- Percent inhibition of CDK8 activity (%) (CDK8/CycC): 108%
- Percent inhibition of CDK19 activity (%) (CDC2L6/CycC (CDK19)): 100%
Structure (SMILES): CC(C)(O)CNC(=O)c1ccc(Oc2sc(C(N)=O)c3c2-c2sncc2CC3)cn1 [Example 114, 8-((6-((2-Hydroxy-2-methylpropyl)carbamoyl)pyridin-3-yl)oxy)-4,5-dihydrothieno[3,4-g][1,2]benzothiazole-6-carboxamide]
- inhibition at 1 µM [1]: 65%

- Percent inhibition of CDK8 activity (%) (CDK8/CycC): 100%
- Percent inhibition of CDK19 activity (%) (CDC2L6/CycC (CDK19)): 95%
Structure (SMILES): CN(CC(C)(C)O)C(=O)c1ccc(Oc2sc(C(N)=O)c3c2-c2sncc2CC3)cn1 [Example 115, 8-((6-((2-Hydroxy-2-methylpropyl) (methyl)carbamoyl)pyridin-3-yl)oxy)-4,5-dihydrothieno[3,4-g][1,2] benzothiazole-6-carboxamide]
- inhibition at 1 µM [1]: 63%

- Percent inhibition of CDK8 activity (%) (CDK8/CycC): 103%
- Percent inhibition of CDK19 activity (%) (CDC2L6/CycC (CDK19)): 99%
Structure (SMILES): Cc1nc(C(=O)N(C)C)ccc1Oc1sc(C(N)=O)c2c1-c1sncc1CC2 [Example 116, 8-((6-(Dimethylcarbamoyl)-2-methylpyridin-3-yl)oxy)-4,5-dihydrothieno[3,4-g][1,2]benzothiazole-6-carboxamide]
- inhibition at 1 µM [1]: 61%
